The results in this text go back to patent US8536204B2, “Amides and thioamides as pesticides” (Bayer CropScience AG, priority 2009, dated 2013).

Like-named read-outs stand apart in the source and are kept apart here.

Data set [1] can be described thus: Determination of the logP values (formic acid method) by HPLC. In kind it is physicochemical. Conditions: for chromatographic logP: reversed-phase HPLC column (C 18). How it is done:
1) Description of Method for Determining the LogP Values (Formic Acid Method)
The logP values reported in the table were determined according to EEC-Directive 79/831 Annex V.A8 by HPLC (High Performance Liquid Chromatography) on a reversed-phase column (C 18). Temperature: 55° C.
Eluents for the determination in the acidic range (pH 3.4):
Eluent A: acetonitrile+1 ml of formic acid/litre. Eluent B: water+0.9 ml of formic acid/litre.
Gradient: from 10% eluent A/90% eluent B to 95% eluent A/5% eluent B in 4.25 min.
The calibration was effected with unbranched alkan-2-ones (with 3 to 16 carbon atoms), whose logP values are known (determination of the logP values on the basis of the retention times by linear interpolation between two successive alkanones). The lambda-max values were determined with reference to the UV spectra from 200 nm to 400 nm in the maxima of the chromatographic signals.

In data set [2] the test system is green peach aphid (Myzus persicae). In words: Myzus test (spray treatment). It is filed as in vivo. Conditions: 144 h, read-out: efficacy in % (100% means that all aphids have been killed). How it is done:
Myzus Test (Spray Treatment)
Solvent: • 78 parts by weight of acetone • 1.5 parts by weight of dimethylformamide
Emulsifier: 0.5 part by weight of alkylaryl polyglycol ether
To produce an appropriate active ingredient formulation, 1 part by weight of active ingredient is mixed with the amounts of solvent and emulsifier specified and the concentrate is diluted to the desired concentration with emulsifier-containing water.
Chinese cabbage leaf slices (Brassica pekinensis) infested by all stages of the green peach aphid (Myzus persicae) are sprayed with an active ingredient formulation of the desired concentration.
After 6 days, the efficacy in % is determined. 100% means that all aphids have been killed; 0% means that no aphids have been killed.

Where [3] appears, read: pH 3.4, formic acid method, pH 3.4, given in the preparation examples, read-out: log P (HCOOH).
Where [4] appears, read: pH 3.4, HPLC on reversed-phase column (C 18), acidic range (pH 3.4), 55° C., Table 1, read-out: logP (HCOOH).
The mark [5] stands for this setting: application rate 500 g/ha, spray on Chinese cabbage leaf slices, after 6 days.

On to `N#Cc1cnn(-c2cccnc2)c1` [1-(Pyridin-3-yl)-1H-pyrazole-4-carbonitrile], for which the chromatographic logP in data set [1] (setting [3]) is 0.98.
For `O=C(O)c1cnn(-c2cccnc2)c1` [1-(Pyridin-3-yl)-1H-pyrazole-4-carboxylic acid], the chromatographic logP in data set [1] (setting [3]) was determined as 0.5.
Consider `Cc1nn(-c2cccnc2)cc1C(=O)O` [3-Methyl-1-(pyridin-3-yl)-1H-pyrazole-4-carboxylic acid], for which the chromatographic logP in data set [1] (setting [3]) was 0.77.
The same measure, in the same setting: under `CCOC(=O)c1cn(-c2cccnc2)nc1C` [Ethyl 3-methyl-1-(pyridin-3-yl)-1H-pyrazole-4-carboxylate] stands 1.83.
On to `CCNC(=O)c1cnn(-c2cccnc2)c1` [Example 1, N-Ethyl-1-(pyridin-3-yl)-1H-pyrazole-4-carboxamide], for which the pest or weed control at 500 g/ha in data set [2] (in Brassica rapa) is 100%. The chromatographic logP in data set [1] (setting [4]) and in data set [1] (setting [3]) was 0.64 throughout.
As for `Cc1nn(-c2cccnc2)cc1C(=O)NCC(F)(F)F` [Example 2, 3-Methyl-1-(pyridin-3-yl)-N-(2,2,2-trifluoroethyl)-1H-pyrazole-4-carboxamide], in data set [2] (in Brassica rapa), the pest or weed control at 500 g/ha was 100%. The chromatographic logP in data set [1] (setting [4]) and in data set [1] (setting [3]) was 1.45 throughout.
Consider `CN(C)C(=O)c1cnn(-c2cccnc2)c1` [Example 4], for which the pest or weed control at 50 g/ha in data set [2] (application rate 50 g/ha, spray on Chinese cabbage leaf slices, after 6 days) is 90%. Besides, the chromatographic logP in data set [1] (setting [4]) was found to be 0.6.
For `O=C(NCc1ncccn1)c1cnn(-c2cccnc2)c1` [Example 5], in data set [2] (setting [5]), the pest or weed control at 500 g/ha is 100%. The chromatographic logP in data set [1] (setting [4]) was 0.51.
For `O=C(NCC(F)F)c1cnn(-c2cccnc2)c1` [Example 6], the pest or weed control at 500 g/ha in data set [2] (setting [5]) was 100%. Also, the chromatographic logP in data set [1] (setting [4]) was determined as 0.87.
With `Cc1nn(-c2cccnc2)cc1C(=O)NCc1ncccn1` [Example 7], the pest or weed control at 500 g/ha in data set [2] (setting [5]) amounted to 100%. The chromatographic logP in data set [1] (setting [4]) stood at 0.78.
For the compound `CN(CC(F)(F)F)C(=O)c1cnn(-c2cccnc2)c1` [Example 8], in data set [2] (setting [5]), the pest or weed control at 500 g/ha stood at 100%. For the same compound, in data set [1] (setting [4]), the chromatographic logP was found to be 1.43.
Turning to `Cc1nn(-c2cccnc2)cc1C(=O)N(C)C` [Example 10], in data set [2] (setting [5]), the pest or weed control at 500 g/ha stood at 100%. Besides, in data set [1] (setting [4]), the chromatographic logP is 0.7.
As for `CON(C)C(=O)c1cnn(-c2cccnc2)c1` [Example 11], the chromatographic logP in data set [1] (setting [4]) turned out to be 0.97.
Turning to `FC(F)(F)CNC(=S)c1cnn(-c2cccnc2)c1` [Example 12, 1-(Pyridin-3-yl)-N-(2,2,2-trifluoroethyl)-1H-pyrazole-4-carbothioamide], in data set [2] (setting [5]), the pest or weed control at 500 g/ha worked out at 80%. Also, the chromatographic logP in data set [1] (setting [4]) and in data set [1] (setting [3]) was 1.97 throughout.
For the compound `O=C(NC1(C(F)(F)F)CC1)c1cnn(-c2cccnc2)c1` [Example 13], the pest or weed control at 500 g/ha in data set [2] (setting [5]) turned out to be 100%. Further, the chromatographic logP in data set [1] (setting [4]) is 1.4.
Regarding `CC(NC(=O)c1cnn(-c2cccnc2)c1)C1CC1` (stereo not drawn) [Example 14], in data set [2] (setting [5]), the pest or weed control at 500 g/ha stood at 100%. The chromatographic logP in data set [1] (setting [4]) was 1.38.
`CC(F)(F)CNC(=O)c1cnn(-c2cccnc2)c1` [Example 15]: the pest or weed control at 500 g/ha in data set [2] (setting [5]) is 100%. In data set [1] (setting [4]), the chromatographic logP is 1.11.
The corresponding values for `O=C(NCc1ccccn1)c1cnn(-c2cccnc2)c1` [Example 16] are 100% and 0.31.
Take `O=C(NCC1Cc2ccccc2O1)c1cnn(-c2cccnc2)c1` (stereo not drawn) [Example 17]: the chromatographic logP in data set [1] (setting [4]) came out at 1.68.
`O=C(NC1CC1)c1cnn(-c2cccnc2)c1` [Example 18]: the pest or weed control at 500 g/ha in data set [2] (setting [5]) is 100%. In addition, the chromatographic logP in data set [1] (setting [4]) came out at 0.78.
For `CN(C(=O)c1cnn(-c2cccnc2)c1)C1CC1` [Example 19], in data set [2] (setting [5]), the pest or weed control at 500 g/ha came to 100%. Moreover, the chromatographic logP in data set [1] (setting [4]) worked out at 1.09.
For `O=C(NCc1nc(C2CC2)no1)c1cnn(-c2cccnc2)c1` [Example 20], in data set [2] (setting [5]), the pest or weed control at 500 g/ha is 100%. Further, in data set [1] (setting [4]), the chromatographic logP stood at 1.21.
In the case of `O=C(NCCC(F)(F)F)c1cnn(-c2cccnc2)c1` [Example 21], the pest or weed control at 500 g/ha in data set [2] (setting [5]) stood at 100%. The chromatographic logP in data set [1] (setting [4]) is 1.31.
`O=C(NCC1OCCO1)c1cnn(-c2cccnc2)c1` [Example 22]: the pest or weed control at 500 g/ha in data set [2] (setting [5]) was found to be 100%. For the same compound, the chromatographic logP in data set [1] (setting [4]) worked out at 0.66.
As to `O=C(NCC1COCCO1)c1cnn(-c2cccnc2)c1` (stereo not drawn) [Example 23], the pest or weed control at 500 g/ha in data set [2] (setting [5]) is 100%. Also, the chromatographic logP in data set [1] (setting [4]) turned out to be 0.7.
As to `COC(CNC(=O)c1cnn(-c2cccnc2)c1)OC` [Example 24], the pest or weed control at 500 g/ha in data set [2] (setting [5]) was found to be 100%. Besides, the chromatographic logP in data set [1] (setting [4]) was found to be 0.83.
Turning to `O=C(NCC1CC1)c1cnn(-c2cccnc2)c1` [Example 25], the pest or weed control at 500 g/ha in data set [2] (setting [5]) came to 100%. In data set [1] (setting [4]), the chromatographic logP turned out to be 1.16.
As for `Cc1nn(-c2cccnc2)cc1C(=O)NC(C)C1CC1` (stereo not drawn) [Example 26], the pest or weed control at 500 g/ha in data set [2] (setting [5]) came out at 100%. For the same compound, in data set [1] (HPLC on reversed-phase column (C 18), acidic range (pH 3.4), 55° C., Table 1), the “logP (HCOOH)” value stood at 1.45. In addition, in data set [1] (setting [4]), the chromatographic logP is 1.58.
On to `Cc1nn(-c2cccnc2)cc1C(=O)NCC(C)(F)F` [Example 27], for which, in data set [2] (setting [5]), the pest or weed control at 500 g/ha is 100%. Moreover, the chromatographic logP in data set [1] (setting [4]) was determined as 1.35.
Take `Cc1nn(-c2cccnc2)cc1C(=O)NCc1ccccn1` [Example 28]: in data set [2] (setting [5]), the pest or weed control at 500 g/ha turned out to be 100%. For the same compound, the chromatographic logP in data set [1] (setting [4]) turned out to be 0.52.
For the compound `Cc1nn(-c2cccnc2)cc1C(=O)N(C)C1CC1` [Example 29], in data set [2] (setting [5]), the pest or weed control at 500 g/ha came to 100%. In addition, the chromatographic logP in data set [1] (setting [4]) was determined as 1.17.
As for `Cc1nn(-c2cccnc2)cc1C(=O)NCC(F)(F)C(F)(F)F` [Example 31], in data set [2] (setting [5]), the pest or weed control at 500 g/ha is 100%. For the same compound, the chromatographic logP in data set [1] (setting [4]) was 1.95.
The corresponding values for `Cc1nn(-c2cccnc2)cc1C(=O)NCCC(F)(F)F` [Example 32] are 100% and 1.52.
In the case of `Cc1nn(-c2cccnc2)cc1C(=O)NCC1OCCO1` [Example 33], the pest or weed control at 500 g/ha in data set [2] (setting [5]) amounted to 100%. Besides, in data set [1] (setting [4]), the chromatographic logP was 0.88.
In the case of `Cc1nn(-c2cccnc2)cc1C(=O)NCC1COCCO1` (stereo not drawn) [Example 34], the pest or weed control at 500 g/ha in data set [2] (setting [5]) was found to be 100%. In data set [1] (setting [4]), the chromatographic logP was 0.91.
Take `COC(CNC(=O)c1cn(-c2cccnc2)nc1C)OC` [Example 35]: the pest or weed control at 500 g/ha in data set [2] (setting [5]) was determined as 100%. For the same compound, the chromatographic logP in data set [1] (setting [4]) was 1.04.
On to `Cc1nn(-c2cccnc2)cc1C(=O)NCC1CC1` [Example 36], for which the pest or weed control at 500 g/ha in data set [2] (setting [5]) stood at 100%. Besides, the chromatographic logP in data set [1] (setting [4]) was found to be 1.32.
Consider `Cc1nn(-c2cccnc2)cc1C(=O)N(C)CC(F)(F)F` [Example 37], for which the pest or weed control at 500 g/ha in data set [2] (setting [5]) turned out to be 100%. Also, in data set [1] (setting [4]), the chromatographic logP turned out to be 1.57.
The corresponding values for `Cc1nn(-c2cccnc2)cc1C(=O)NCCF` [Example 38] are 100% and 0.87.
Take `CCNC(=O)c1cn(-c2cccnc2)nc1C` [Example 39]: in data set [2] (setting [5]), the pest or weed control at 500 g/ha came to 100%. For the same compound, the chromatographic logP in data set [1] (setting [4]) worked out at 0.91.
With `N#CCNC(=O)c1cnn(-c2cccnc2)c1` [Example 40], in data set [2] (setting [5]), the pest or weed control at 500 g/ha was 100%. Also, in data set [1] (setting [4]), the chromatographic logP came to 0.52.
The corresponding values for `CC(C)C(C#N)NC(=O)c1cnn(-c2cccnc2)c1` (stereo not drawn) [Example 41] are 100% and 1.4.
In the case of `CN(C(=O)c1cnn(-c2cccnc2)c1)C(C)(C)C#N` [Example 42], the pest or weed control at 500 g/ha in data set [2] (setting [5]) was 100%. The chromatographic logP in data set [1] (setting [4]) is 1.09.
For `COC(=O)C(C)NC(=O)c1cn(-c2cccnc2)nc1C` (stereo not drawn) [Example 43], the pest or weed control at 500 g/ha in data set [2] (setting [5]) was found to be 100%. Moreover, in data set [1] (setting [4]), the chromatographic logP is 1.14.
For `Cc1nn(-c2cccnc2)cc1C(=O)NCC#N` [Example 44], the chromatographic logP in data set [1] (setting [4]) turned out to be 0.79.
Take `COC(=O)C1(NC(=O)c2cnn(-c3cccnc3)c2)CC1` [Example 45]: the pest or weed control at 500 g/ha in data set [2] (setting [5]) amounted to 100%. Moreover, the chromatographic logP in data set [1] (setting [4]) is 0.84.
The corresponding values for `Cc1nn(-c2cccnc2)cc1C(=O)NCC(F)F` [Example 46] are 100% and 1.12.
The corresponding values for `Cc1nn(-c2cccnc2)cc1C(=O)NC1(C(F)(F)F)CC1` [Example 47] are 100% and 1.63.
`COc1cc(OC)nc(CNC(=O)c2cnn(-c3cccnc3)c2)n1` [Example 51]: the chromatographic logP in data set [1] (setting [4]) is 1.37.
Regarding `Cc1nn(-c2cccnc2)cc1C(=O)NCC1Cc2ccccc2O1` (stereo not drawn) [Example 56], the chromatographic logP in data set [1] (setting [4]) was 1.9.
`Cc1nn(-c2cccnc2)cc1C(=O)NCCOc1cc(Cl)ccc1Cl` [Example 57]: the chromatographic logP in data set [1] (setting [4]) was 2.56.
